We go through four compounds from ChEMBL document CHEMBL1142788, “Synthesis and antibacterial activity of alkyl derivatives of the glycopeptide antibiotic A40926 and their amides” (2005).

In experiment [1] the test system is Enterococcus faecalis. Nature of the experiment: Minimum inhibitory concentration against vancomycin-sensitive Enterococcus faecalis in the presence of 30% bovine serum(n=3)(range = >=0.125-0.25mg/l). Format: functional.
Experiment [2] deals with Staphylococcus epidermidis. Nature of the experiment: Minimum inhibitory concentration against methicillin-sensitive Staphylococcus epidermidis in the presence of 30% bovine serum. Format: functional.
For experiment [3], the system named is Staphylococcus haemolyticus. Nature of the experiment: Minimum inhibitory concentration against Staphylococcus haemolyticus in the presence of 30% bovine serum. Format: functional.
Experiment [4] deals with Enterococcus faecalis. Nature of the experiment: Minimum inhibitory concentration against vancomycin-A Enterococcus faecalis in the presence of 30% bovine serum (n=4). The experiment is classed as functional.
Experiment [5] deals with Staphylococcus epidermidis. Nature of the experiment: Minimum inhibitory concentration against methicillin-resistant Staphylococcus epidermidis in the presence of 30% bovine serum. The experiment is classed as functional.
Experiment [6] has as its system Enterococcus faecium. Nature of the experiment: Minimum inhibitory concentration against vancomycin-sensitive Enterococcus faecium in the presence of 30% bovine serum(n=1). Format: functional.
Experiment [7] relates to Enterococcus faecium. In words: Minimum inhibitory concentration against vancomycin-A Enterococcus faecium in the presence of 30% bovine serum (n=1) (128>128mg/L). The experiment is classed as functional.
For experiment [8], the system named is Staphylococcus aureus. In words: Minimum inhibitory concentration against methicillin-resistant Staphylococcus aureus.
The subject of experiment [9] is Staphylococcus aureus. Nature of the experiment: Minimum inhibitory concentration against methicillin-sensitive Staphylococcus aureus.
The subject of experiment [10] is Enterococcus faecalis. Nature of the experiment: Minimum inhibitory concentration against vancomycin-sensitive Enterococcus faecalis in the presence of 30% bovine serum(n=3)(range = 8-4). The experiment is classed as functional.
Experiment [11] relates to Enterococcus faecalis. Nature of the experiment: Minimum inhibitory concentration against vancomycin-A Enterococcus faecalis in the presence of 30% bovine serum(n=4) (range = 0.125-16mg/L). Format: functional.
Experiment [12] concerns Enterococcus faecium. In words: Minimum inhibitory concentration against vancomycin-A Enterococcus faecium in the presence of 30% bovine serum (n=1). The experiment is classed as functional.
Experiment [13] relates to Enterococcus faecium. Nature of the experiment: Minimum inhibitory concentration against vancomycin-A Enterococcus faecium in the presence of 30% bovine serum (n=1) (range = 0.125-16mg/l). Format: functional.
The subject of experiment [14] is Enterococcus faecalis. In words: Minimum inhibitory concentration against vancomycin-sensitive Enterococcus faecalis in the presence of 30% bovine serum (n=3). The experiment is classed as functional.
Experiment [15] relates to Enterococcus faecalis. In words: Minimum inhibitory concentration against vancomycin-A Enterococcus faecalis (n=4) (range = 0.25-8mg/L).
In experiment [16] the test system is Enterococcus faecium. Nature of the experiment: Minimum inhibitory concentration against vancomycin-A Enterococcus faecium in the presence of 30% bovine serum (n=1) (range = 64>128mg/L). Format: functional.
Experiment [17] deals with Enterococcus faecalis. Nature of the experiment: Minimum inhibitory concentration against vancomycin-sensitive Enterococcus faecalis in the presence of 30% bovine serum(n=3)(range = 1-2mg/l). Format: functional.
Experiment [18] deals with Enterococcus faecalis. Nature of the experiment: Minimum inhibitory concentration against vancomycin-A Enterococcus faecalis in the presence of 30% bovine serum(n=4) (128 >128mg/L). The experiment is classed as functional.

Molecules are shown by their SMILES. Values after ≈ are worked out from the molar mass of the structure shown.

As usually defined, the MIC is the lowest concentration found to suppress growth.

As for `CCCCCCC(CCCC)CNC1[C@H](Oc2c3cc4cc2Oc2ccc(cc2Cl)[C@@H](O)C2NC(=O)[C@H](NC(=O)[C@@H]4NC(=O)[C@H]4NC(=O)[C@@H](Cc5ccc(cc5)O3)NC(=O)[C@H](NC)c3ccc(O)c(c3)Oc3cc(O)c(Cl)c4c3)c3ccc(O)c(c3)-c3c(O[C@H]4O[C@H](CO)[C@@H](O)[C@H](O)[C@@H]4O)cc(O)cc3[C@@H](C(=O)O)NC2=O)OC(C(=O)O)C(O)[C@@H]1O` (some centres undefined), the MIC is at most 0.125 µg/mL in the experiment with Enterococcus faecalis [1]; 2 µg/mL in [2]; 32 µg/mL in [3]; over 128 µg/mL in the experiment on Enterococcus faecalis [4]; 32 µg/mL in experiment [5]; 1 µg/mL with Enterococcus faecium [6]. In addition, the MIC in the experiment with Enterococcus faecium [7] is over 128 µg/mL; against Staphylococcus aureus [8], 2 µg/mL (≈ 1.16 µM); in the experiment on Staphylococcus aureus [9], 4 µg/mL (≈ 2.33 µM).

As to `CCCCC(CC)Oc1ccc(CNC2[C@H](Oc3c4cc5cc3Oc3ccc(cc3Cl)[C@@H](O)C3NC(=O)[C@H](NC(=O)[C@@H]5NC(=O)[C@H]5NC(=O)[C@@H](Cc6ccc(cc6)O4)NC(=O)[C@H](NC)c4ccc(O)c(c4)Oc4cc(O)c(Cl)c5c4)c4ccc(O)c(c4)-c4c(O[C@H]5O[C@H](CO)[C@@H](O)[C@H](O)[C@@H]5O)cc(O)cc4[C@@H](C(=O)NCCCN(C)C)NC3=O)OC(C(=O)NCCCN(C)C)C(O)[C@@H]2O)cc1` (some centres undefined), the minimal inhibitory concentration (MIC) in the experiment on Enterococcus faecalis [10] is under 0.125 µg/mL; in the experiment with Enterococcus faecalis [11] it was under 16 µg/mL; in the experiment with Enterococcus faecium [12], 16 µg/mL; in experiment [2], under 0.125 µg/mL; in [3] it was 4 µg/mL; in the experiment with Enterococcus faecium [6], under 0.125 µg/mL. In the experiment with Staphylococcus aureus [9], this compound came in with an MIC of under 0.125 µg/mL.

As to `CCCCOc1ccc(CNC2[C@H](Oc3c4cc5cc3Oc3ccc(cc3Cl)[C@@H](O)C3NC(=O)[C@H](NC(=O)[C@@H]5NC(=O)[C@H]5NC(=O)[C@@H](Cc6ccc(cc6)O4)NC(=O)[C@H](N(C)Cc4ccc(OCCCC)cc4)c4ccc(O)c(c4)Oc4cc(O)c(Cl)c5c4)c4ccc(O)c(c4)-c4c(O[C@H]5O[C@H](CO)[C@@H](O)[C@H](O)[C@@H]5O)cc(O)cc4[C@@H](C(=O)NCCCN(C)C)NC3=O)OC(C(=O)NCCCN(C)C)C(O)[C@@H]2O)cc1` (some centres undefined), the MIC with Enterococcus faecium [13] is over 16 µg/mL; in [2] it was under 0.125 µg/mL; in the experiment with Enterococcus faecalis [14], under 0.125 µg/mL; in [3], 1 µg/mL; in experiment [5], 0.5 µg/mL; in the experiment on Enterococcus faecium [6], 0.125 µg/mL. In addition, the minimal inhibitory concentration (MIC) came to 1 µg/mL (≈ 0.489 µM) against Staphylococcus aureus [8], 0.25 µg/mL (≈ 0.122 µM) against Staphylococcus aureus [9] and 8 µg/mL (≈ 3.92 µM) against Enterococcus faecalis [15].

Regarding `CCCCOc1ccc(CN(C)[C@H]2C(=O)N[C@@H]3Cc4ccc(cc4)Oc4cc5cc(c4O[C@@H]4OC(C(=O)O)C(O)[C@H](O)C4N)Oc4ccc(cc4Cl)[C@@H](O)C4NC(=O)[C@H](NC(=O)[C@@H]5NC(=O)[C@@H](NC3=O)c3cc(cc(O)c3Cl)Oc3cc2ccc3O)c2ccc(O)c(c2)-c2c(O[C@H]3O[C@H](CO)[C@@H](O)[C@H](O)[C@@H]3O)cc(O)cc2[C@@H](C(=O)O)NC4=O)cc1` (some centres undefined), the MIC in the experiment with Enterococcus faecium [16] is over 128 µg/mL; with Enterococcus faecalis [17], 2 µg/mL; in [2], 32 µg/mL; in experiment [3], over 128 µg/mL; in experiment [5], 128 µg/mL; in the experiment with Enterococcus faecium [6] it was 2 µg/mL. The values for the MIC in the experiment with Enterococcus faecalis [18], in the experiment with Staphylococcus aureus [8] and in the experiment with Staphylococcus aureus [9] were 128 µg/mL, 2 µg/mL (≈ 1.17 µM) and 4 µg/mL (≈ 2.34 µM), respectively.
